From publication PMC10046369, “Low-Affinity/High-Selectivity Dopamine Transport Inhibition Sufficient to Rescue Cognitive Functions in the Aging Rat” (Biomolecules, 2023)

Legend:
Experiment in all cases: biochemical
Parameters in all cases: KINOMEscan competition binding panel, per cent of control
Settings in all cases: read-out: %Ctrl @ 2800nM
[1] = target: RET(M918T) (Homo sapiens, UniProt P07949, M918T)
How it was run: (§1)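 Values are expressed as percent of control, calculated as ((test − positive control)/(negative control − positive control)) × 100, so lower numbers mean stronger hits. Binding was measured by KINOMEscan competition assay in a 450-kinase human panel including disease mutants, using the contractor's validated protocol.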

[2] = target: T1, RSK1(Kin.Dom.2-C-terminal) (Homo sapiens, UniProt Q15418)
T1 construct: gene RPS6KA1; Kin.Dom.2-C-terminal
How it was run: as §1

[3] = target: FLT3(D835H) (Homo sapiens, UniProt P36888, D835H)
How it was run: as §1

[4] = target: CSNK1G3 (Homo sapiens, UniProt Q9Y6M4)
How it was run: as §1

[5] = target: PIK3CA(H1047L) (Homo sapiens, UniProt P42336, H1047L)
How it was run: as §1

[6] = target: T2, ABL1(F317L)-nonphosphorylated (Homo sapiens, UniProt P00519, F317L)
T2 construct: nonphosphorylated
How it was run: as §1

[7] = target: T3, ABL1(T315I)-nonphosphorylated (Homo sapiens, UniProt P00519, T315I)
T3 construct: nonphosphorylated
How it was run: as §1

[8] = target: T4, CDK11 (Homo sapiens, UniProt Q9BWU1)
T4 construct: gene CDK19
T4 sequence (Q9BWU1 whole entry): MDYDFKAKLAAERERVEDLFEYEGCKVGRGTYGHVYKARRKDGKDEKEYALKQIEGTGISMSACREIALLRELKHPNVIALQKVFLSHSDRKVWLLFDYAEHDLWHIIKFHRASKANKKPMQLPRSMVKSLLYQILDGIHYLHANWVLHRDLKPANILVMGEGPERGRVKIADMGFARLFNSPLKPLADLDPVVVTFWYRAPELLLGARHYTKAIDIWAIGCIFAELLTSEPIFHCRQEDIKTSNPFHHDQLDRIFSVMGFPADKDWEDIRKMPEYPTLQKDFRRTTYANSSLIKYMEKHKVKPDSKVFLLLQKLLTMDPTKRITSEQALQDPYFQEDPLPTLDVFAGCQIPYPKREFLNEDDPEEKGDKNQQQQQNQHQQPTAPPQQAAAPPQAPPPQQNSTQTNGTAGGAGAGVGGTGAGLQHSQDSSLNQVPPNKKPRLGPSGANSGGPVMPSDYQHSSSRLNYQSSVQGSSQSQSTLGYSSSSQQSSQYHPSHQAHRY
How it was run: as §1

[9] = target: MARK3 (Homo sapiens, UniProt P27448)
How it was run: as §1

[10] = target: T5, DCAMKL3 (Homo sapiens, UniProt Q9C098)
T5 construct: gene DCLK3
How it was run: as §1

[11] = target: CDK3 (Homo sapiens, UniProt Q00526)
How it was run: as §1

[12] = target: T6, PRP4 (Homo sapiens, UniProt Q13523)
T6 construct: gene PRPF4B
T6 sequence (Q13523 whole entry): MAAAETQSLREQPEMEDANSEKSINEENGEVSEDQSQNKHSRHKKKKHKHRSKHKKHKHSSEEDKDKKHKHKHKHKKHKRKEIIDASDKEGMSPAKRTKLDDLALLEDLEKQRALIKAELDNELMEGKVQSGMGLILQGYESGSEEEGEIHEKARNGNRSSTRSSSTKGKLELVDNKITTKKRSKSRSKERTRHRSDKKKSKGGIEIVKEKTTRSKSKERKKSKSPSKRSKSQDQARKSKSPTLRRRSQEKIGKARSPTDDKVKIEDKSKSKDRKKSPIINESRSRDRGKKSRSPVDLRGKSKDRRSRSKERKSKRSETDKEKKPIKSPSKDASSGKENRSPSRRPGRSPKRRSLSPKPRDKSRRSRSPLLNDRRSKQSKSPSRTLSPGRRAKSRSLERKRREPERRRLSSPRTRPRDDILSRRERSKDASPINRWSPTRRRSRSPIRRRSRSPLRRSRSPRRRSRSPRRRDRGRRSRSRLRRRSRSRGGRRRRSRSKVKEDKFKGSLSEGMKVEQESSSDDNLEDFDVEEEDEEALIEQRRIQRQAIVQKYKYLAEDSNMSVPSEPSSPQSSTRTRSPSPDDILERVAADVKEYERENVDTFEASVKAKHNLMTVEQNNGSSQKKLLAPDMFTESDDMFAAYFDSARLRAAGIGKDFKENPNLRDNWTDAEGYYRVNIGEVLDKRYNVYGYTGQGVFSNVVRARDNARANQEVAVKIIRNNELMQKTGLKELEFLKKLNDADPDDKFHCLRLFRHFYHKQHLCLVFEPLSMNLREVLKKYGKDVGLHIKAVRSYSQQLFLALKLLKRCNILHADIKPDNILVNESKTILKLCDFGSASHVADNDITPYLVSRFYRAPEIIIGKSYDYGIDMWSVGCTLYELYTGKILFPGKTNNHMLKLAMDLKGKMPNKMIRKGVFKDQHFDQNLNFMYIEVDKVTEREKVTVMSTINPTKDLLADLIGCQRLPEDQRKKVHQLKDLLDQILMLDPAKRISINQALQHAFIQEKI
How it was run: as §1

[13] = target: CSF1R-autoinhibited (Homo sapiens, UniProt P07333)
CSF1R-autoinhibited, sequence (P07333 whole entry): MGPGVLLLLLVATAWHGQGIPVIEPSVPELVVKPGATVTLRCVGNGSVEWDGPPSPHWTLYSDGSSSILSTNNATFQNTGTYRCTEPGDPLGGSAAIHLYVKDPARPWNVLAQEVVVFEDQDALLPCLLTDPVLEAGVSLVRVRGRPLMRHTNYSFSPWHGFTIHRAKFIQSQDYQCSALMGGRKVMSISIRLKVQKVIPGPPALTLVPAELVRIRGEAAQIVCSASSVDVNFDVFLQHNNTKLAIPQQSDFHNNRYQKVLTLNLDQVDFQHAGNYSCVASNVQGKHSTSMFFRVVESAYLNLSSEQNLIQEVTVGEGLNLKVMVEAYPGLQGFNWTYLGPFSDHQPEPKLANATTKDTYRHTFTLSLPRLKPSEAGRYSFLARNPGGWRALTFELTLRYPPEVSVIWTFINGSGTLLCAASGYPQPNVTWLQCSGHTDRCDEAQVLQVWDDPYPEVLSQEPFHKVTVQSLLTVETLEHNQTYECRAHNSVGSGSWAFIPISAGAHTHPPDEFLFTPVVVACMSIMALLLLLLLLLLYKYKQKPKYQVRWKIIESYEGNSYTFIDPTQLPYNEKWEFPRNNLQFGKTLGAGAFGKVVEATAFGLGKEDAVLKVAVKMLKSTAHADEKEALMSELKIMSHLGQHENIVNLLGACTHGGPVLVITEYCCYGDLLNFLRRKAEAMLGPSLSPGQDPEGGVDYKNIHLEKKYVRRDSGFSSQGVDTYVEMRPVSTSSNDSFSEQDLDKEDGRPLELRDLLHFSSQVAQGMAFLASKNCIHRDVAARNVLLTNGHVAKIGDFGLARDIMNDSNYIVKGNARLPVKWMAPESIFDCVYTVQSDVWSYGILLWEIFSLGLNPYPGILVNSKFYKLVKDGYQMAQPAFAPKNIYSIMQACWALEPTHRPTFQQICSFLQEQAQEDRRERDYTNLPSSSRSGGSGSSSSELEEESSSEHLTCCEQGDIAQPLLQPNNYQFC
How it was run: as §1

[14] = target: T7, LOK (Homo sapiens, UniProt O94804)
T7 construct: gene STK10
How it was run: as §1

[15] = target: T8, ABL1-nonphosphorylated (Homo sapiens, UniProt P00519)
T8 construct: nonphosphorylated
How it was run: as §1

[16] = target: PRKG2 (Homo sapiens, UniProt Q13237)
PRKG2, sequence (Q13237 whole entry): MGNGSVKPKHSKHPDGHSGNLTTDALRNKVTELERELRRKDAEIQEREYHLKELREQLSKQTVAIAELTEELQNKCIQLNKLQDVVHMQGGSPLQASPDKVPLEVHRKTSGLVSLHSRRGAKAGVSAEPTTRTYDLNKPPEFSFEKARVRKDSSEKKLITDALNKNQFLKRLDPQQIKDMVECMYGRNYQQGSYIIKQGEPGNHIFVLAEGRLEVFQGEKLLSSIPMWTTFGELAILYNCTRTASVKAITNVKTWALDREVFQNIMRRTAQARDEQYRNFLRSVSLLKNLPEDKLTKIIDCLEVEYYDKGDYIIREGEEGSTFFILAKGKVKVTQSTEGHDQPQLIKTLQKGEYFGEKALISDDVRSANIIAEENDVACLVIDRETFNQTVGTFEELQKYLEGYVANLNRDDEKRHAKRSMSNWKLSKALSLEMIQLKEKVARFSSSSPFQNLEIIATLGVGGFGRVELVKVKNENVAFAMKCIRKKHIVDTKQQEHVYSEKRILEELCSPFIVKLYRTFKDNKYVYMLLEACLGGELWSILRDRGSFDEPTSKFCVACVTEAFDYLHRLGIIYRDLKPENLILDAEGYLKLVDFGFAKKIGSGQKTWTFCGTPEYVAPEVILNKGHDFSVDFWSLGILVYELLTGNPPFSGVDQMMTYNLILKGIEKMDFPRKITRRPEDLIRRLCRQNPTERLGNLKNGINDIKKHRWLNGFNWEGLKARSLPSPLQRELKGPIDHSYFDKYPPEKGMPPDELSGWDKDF
How it was run: as §1

[17] = target: T9, MINK (Homo sapiens, UniProt Q8N4C8)
T9 construct: gene MINK1
How it was run: as §1

[18] = target: GRK7 (Homo sapiens, UniProt Q8WTQ7)
How it was run: as §1

[19] = target: SRPK3 (Homo sapiens, UniProt Q9UPE1)
How it was run: as §1

[20] = target: T10, MLCK (Homo sapiens, UniProt Q32MK0)
T10 construct: gene MYLK3
How it was run: as §1

[21] = target: LIMK2 (Homo sapiens, UniProt P53671)
How it was run: as §1

[22] = target: ERBB2 (Homo sapiens, UniProt P04626)
How it was run: as §1

[23] = target: CAMK2B (Homo sapiens, UniProt Q13554)
How it was run: as §1

[24] = target: BMPR1B (Homo sapiens, UniProt O00238)
BMPR1B, sequence (O00238 whole entry): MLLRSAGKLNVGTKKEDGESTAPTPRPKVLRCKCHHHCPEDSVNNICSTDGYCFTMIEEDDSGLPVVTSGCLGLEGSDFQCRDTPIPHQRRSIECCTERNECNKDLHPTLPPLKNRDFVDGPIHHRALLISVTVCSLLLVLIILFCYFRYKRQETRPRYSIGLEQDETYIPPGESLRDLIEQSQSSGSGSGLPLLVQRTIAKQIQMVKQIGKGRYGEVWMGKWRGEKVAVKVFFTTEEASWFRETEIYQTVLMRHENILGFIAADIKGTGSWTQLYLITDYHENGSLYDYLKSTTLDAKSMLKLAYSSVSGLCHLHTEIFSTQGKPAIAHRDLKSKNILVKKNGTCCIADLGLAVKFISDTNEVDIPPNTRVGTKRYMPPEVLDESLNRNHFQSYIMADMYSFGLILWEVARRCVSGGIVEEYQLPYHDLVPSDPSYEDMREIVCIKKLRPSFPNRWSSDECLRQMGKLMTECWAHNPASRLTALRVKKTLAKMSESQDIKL
How it was run: as §1

[25] = target: SIK2 (Homo sapiens, UniProt Q9H0K1)
How it was run: as §1

[26] = target: T11, MST1 (Homo sapiens, UniProt Q13043)
T11 construct: gene STK4
How it was run: as §1

RET(M918T), sequence (P07949 whole entry M918T): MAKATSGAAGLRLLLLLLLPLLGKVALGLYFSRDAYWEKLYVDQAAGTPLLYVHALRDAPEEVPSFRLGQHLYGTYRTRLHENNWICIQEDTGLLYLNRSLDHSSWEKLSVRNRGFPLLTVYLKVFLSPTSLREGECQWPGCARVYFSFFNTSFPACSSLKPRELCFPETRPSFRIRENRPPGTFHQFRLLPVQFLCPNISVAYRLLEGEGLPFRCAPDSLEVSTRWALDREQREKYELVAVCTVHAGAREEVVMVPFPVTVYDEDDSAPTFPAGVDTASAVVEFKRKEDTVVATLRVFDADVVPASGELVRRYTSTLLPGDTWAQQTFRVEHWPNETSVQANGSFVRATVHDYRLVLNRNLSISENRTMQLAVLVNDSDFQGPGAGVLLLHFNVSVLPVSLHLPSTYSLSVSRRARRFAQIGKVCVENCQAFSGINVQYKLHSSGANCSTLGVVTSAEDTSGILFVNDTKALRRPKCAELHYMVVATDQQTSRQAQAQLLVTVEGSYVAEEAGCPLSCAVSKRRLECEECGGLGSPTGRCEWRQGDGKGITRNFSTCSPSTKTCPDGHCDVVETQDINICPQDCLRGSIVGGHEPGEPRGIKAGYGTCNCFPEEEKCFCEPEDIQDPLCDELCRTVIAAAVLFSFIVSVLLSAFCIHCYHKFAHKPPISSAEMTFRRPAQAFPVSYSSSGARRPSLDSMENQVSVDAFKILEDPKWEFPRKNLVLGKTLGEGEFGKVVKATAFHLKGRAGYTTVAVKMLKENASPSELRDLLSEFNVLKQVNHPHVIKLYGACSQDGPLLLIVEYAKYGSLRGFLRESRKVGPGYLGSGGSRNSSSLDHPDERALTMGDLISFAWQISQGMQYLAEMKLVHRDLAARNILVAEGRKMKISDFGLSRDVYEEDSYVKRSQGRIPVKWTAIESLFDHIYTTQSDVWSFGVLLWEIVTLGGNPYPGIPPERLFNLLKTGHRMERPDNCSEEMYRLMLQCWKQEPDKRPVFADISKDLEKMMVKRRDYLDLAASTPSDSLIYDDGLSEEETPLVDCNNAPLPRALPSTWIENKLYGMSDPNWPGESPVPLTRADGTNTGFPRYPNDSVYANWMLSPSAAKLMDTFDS

With `[O-][S@@+](Cc1cncs1)C(c1ccccc1)c1ccccc1` [S-CE-123, (S)-5-((Benzhydrylsulfinyl)Methyl)Thiazole] as the compound, how does the remaining binding at 2.8 µM [1] read?
Its remaining binding at 2.8 µM is 89%.

And the remaining binding at 2.8 µM [2]?
Its remaining binding at 2.8 µM is 92%.

And the remaining binding at 2.8 µM [3]?
Its remaining binding at 2.8 µM is 58%.

What about the remaining binding at 2.8 µM [4] of the same compound?
The remaining binding at 2.8 µM was 98%.

What about the remaining binding at 2.8 µM [5] of the same compound?
The remaining binding at 2.8 µM was 100%.

And the remaining binding at 2.8 µM [6]?
Its remaining binding at 2.8 µM is 100%.

And the remaining binding at 2.8 µM [7]?
The remaining binding at 2.8 µM was 100%.

And the remaining binding at 2.8 µM [8]?
Its remaining binding at 2.8 µM is 71%.

What about the remaining binding at 2.8 µM [9] of the same compound?
Its remaining binding at 2.8 µM is 70%.

What about the remaining binding at 2.8 µM [10] of the same compound?
The remaining binding at 2.8 µM was 96%.

And the remaining binding at 2.8 µM [11]?
The remaining binding at 2.8 µM was 100%.

And the remaining binding at 2.8 µM [12]?
The remaining binding at 2.8 µM was 92%.

What about the remaining binding at 2.8 µM [13] of the same compound?
Its remaining binding at 2.8 µM is 100%.

What about the remaining binding at 2.8 µM [14] of the same compound?
Its remaining binding at 2.8 µM is 95%.

And the remaining binding at 2.8 µM [15]?
The remaining binding at 2.8 µM was 93%.

What about the remaining binding at 2.8 µM [16] of the same compound?
Its remaining binding at 2.8 µM is 99%.

What about the remaining binding at 2.8 µM [17] of the same compound?
The remaining binding at 2.8 µM was 87%.

And the remaining binding at 2.8 µM [18]?
The remaining binding at 2.8 µM was 90%.

And the remaining binding at 2.8 µM [19]?
The remaining binding at 2.8 µM was 76%.

What about the remaining binding at 2.8 µM [20] of the same compound?
The remaining binding at 2.8 µM was 96%.

And the remaining binding at 2.8 µM [21]?
The remaining binding at 2.8 µM was 88%.

What about the remaining binding at 2.8 µM [22] of the same compound?
Its remaining binding at 2.8 µM is 100%.

And the remaining binding at 2.8 µM [23]?
The remaining binding at 2.8 µM was 87%.

And the remaining binding at 2.8 µM [24]?
The remaining binding at 2.8 µM was 100%.

And the remaining binding at 2.8 µM [25]?
Its remaining binding at 2.8 µM is 100%.

What about the remaining binding at 2.8 µM [26] of the same compound?
The remaining binding at 2.8 µM was 97%.
